This passage reports IC50 results from US20090131470A1, “PYRAZOLE-SUBSTITUTED BENZIMIDAZOLE DERIVATIVES FOR USE IN THE TREATMENT OF CANCER AND AUTOIMMUNE DISORDERS” (priority 2005, published 2009).

SMILES strings stand for the structures.

What all share (type): biochemical
One assay deals with T1, GST-Chk1 enzyme (Homo sapiens, UniProt O14757).
T1 sequence (O14757 1-476): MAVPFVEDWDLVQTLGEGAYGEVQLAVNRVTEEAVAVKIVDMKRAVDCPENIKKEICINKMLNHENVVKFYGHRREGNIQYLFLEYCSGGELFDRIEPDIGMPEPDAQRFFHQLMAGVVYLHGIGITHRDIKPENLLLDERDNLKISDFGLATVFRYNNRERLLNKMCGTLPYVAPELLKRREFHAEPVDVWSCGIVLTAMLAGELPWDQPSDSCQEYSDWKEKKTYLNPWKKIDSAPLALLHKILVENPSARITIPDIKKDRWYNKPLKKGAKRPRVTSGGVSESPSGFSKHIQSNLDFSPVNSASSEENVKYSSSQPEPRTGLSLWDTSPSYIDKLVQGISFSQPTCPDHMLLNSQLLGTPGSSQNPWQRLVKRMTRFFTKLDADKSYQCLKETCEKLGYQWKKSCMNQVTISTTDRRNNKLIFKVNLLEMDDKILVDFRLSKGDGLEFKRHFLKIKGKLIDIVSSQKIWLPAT
The experiment in a line: Chk1 kinase assay (33P Chktide phosphorylation). Conditions: 0.01 mM ATP, 40 minutes at 30° C.; read-out: CHK-1 IC50. The method, then: The assay mixture containing the inhibitor and Chk1 enzyme was mixed together in a microtiter plate in a final volume of 50 μl and incubated for 40 minutes at 30° C. […] The reaction was stopped by adding 50 μl of 50 mM phosphoric acid. 90 μl of the mixture was transferred to a pre-wetted 96-well multi-screen MAPHNOB filtration plate (Millipore) and filtered on a vacuum manifold. The filter plate was washed with 3 successive additions of 200 μl 50 mM phosphoric acid and then with 100 μl methanol. The filtration plate was dried for 10 min at 65° C., scintillant added and phosphorylated peptide quantified in a scintillation counter (Trilux, PerkinElmer)

The target in the next assay is T2, PDK1 (Homo sapiens, UniProt O15530).
T2 sequence (O15530 1-556): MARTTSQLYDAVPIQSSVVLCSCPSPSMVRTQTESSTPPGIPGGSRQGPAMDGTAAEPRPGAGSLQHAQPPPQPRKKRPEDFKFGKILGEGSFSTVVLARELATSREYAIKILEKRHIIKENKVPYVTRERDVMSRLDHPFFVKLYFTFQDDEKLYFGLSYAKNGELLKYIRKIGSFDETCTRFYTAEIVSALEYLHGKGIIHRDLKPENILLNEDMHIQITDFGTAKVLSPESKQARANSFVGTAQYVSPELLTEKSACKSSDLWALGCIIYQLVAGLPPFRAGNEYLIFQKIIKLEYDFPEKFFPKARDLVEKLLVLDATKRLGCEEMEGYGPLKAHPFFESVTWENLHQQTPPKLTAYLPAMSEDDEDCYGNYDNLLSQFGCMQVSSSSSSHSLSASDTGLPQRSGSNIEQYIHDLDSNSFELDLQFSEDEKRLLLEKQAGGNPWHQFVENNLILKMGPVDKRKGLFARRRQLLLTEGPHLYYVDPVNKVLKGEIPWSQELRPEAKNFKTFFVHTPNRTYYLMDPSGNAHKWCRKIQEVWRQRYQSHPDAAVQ
The experiment in a line: PDK1 kinase assay (33P peptide phosphorylation). Conditions: 0.01 mM ATP, 60 min at 30° C.; read-out: PDK-1 IC50. As for the experimental part:
The assay mixture containing the inhibitor and PDK1 enzyme was mixed together in a microtiter plate in a final volume of 50 μl and incubated for 60 min at 30° C. The assay mixture contained 0.01 mM unlabeled ATP, 0.01 μCi/μl ^33P-γ-ATP, 0.075 mM peptide, 0.1 mg/ml BSA, 7.5 mM magnesium acetate, 0.05M Tris.HCl, pH 7.5, 0.5% 2-mercaptoethanol. The reaction was stopped by adding 50 μl of 50 mM phosphoric acid. 90 μl of the mixture were transferred to a pre-wetted 96-well Multiscreen MAPHNOB filtration plate (Millipore) and filtered on a vacuum manifold. The filter plate was washed with 3 successive additions of 200 μl 50 mM phosphoric acid and then with 100 μl methanol. The filtration plate was dried for 10 min at 65° C., scintillant added and phosphorylated peptide quantified in a scintillation counter (Trilux, PerkinElmer)

The target in a further assay is T3, Akt1 (Homo sapiens, UniProt P31749).
T3 construct: purchased Upstate
T3 sequence (P31749 whole entry, species assumed): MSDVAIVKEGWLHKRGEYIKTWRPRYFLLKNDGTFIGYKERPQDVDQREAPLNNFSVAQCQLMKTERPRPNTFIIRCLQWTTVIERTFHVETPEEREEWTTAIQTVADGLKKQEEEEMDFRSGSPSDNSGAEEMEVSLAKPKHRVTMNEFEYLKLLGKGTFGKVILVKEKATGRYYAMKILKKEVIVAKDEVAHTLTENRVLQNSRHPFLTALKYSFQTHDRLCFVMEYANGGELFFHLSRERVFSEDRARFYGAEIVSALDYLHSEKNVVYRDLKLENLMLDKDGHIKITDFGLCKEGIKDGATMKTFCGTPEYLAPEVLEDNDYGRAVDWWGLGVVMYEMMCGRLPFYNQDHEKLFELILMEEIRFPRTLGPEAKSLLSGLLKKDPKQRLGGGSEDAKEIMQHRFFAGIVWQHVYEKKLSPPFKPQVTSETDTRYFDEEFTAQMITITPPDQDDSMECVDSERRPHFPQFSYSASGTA
Put plainly: Akt1 kinase assay (Histone H1 substrate). Conditions: 200 μM ATP, read-out: AKT-1 IC50. As for the experimental part: (§1) Assays for the cyclin dependent kinase activity were carried out by monitoring the phosphorylation of a synthetic peptide, HATTPKKKRK. The assay mixture containing the inhibitor and CDK-2 enzyme, complexed with cyclin A (0.4 U/ml) was mixed together in a microtiter plate in a final volume of 50 μl and incubated for 40 min at 30° C. The assay mixture contained 0.1 mM unlabeled ATP, 0.01 μCi/μl ^33P-γ-ATP, 0.03 mM peptide, 0.1 mg/ml BSA, 7.5 mM magnesium acetate, 50 mM HEPES-NaOH, pH 7.5. The reaction was stopped by adding 50 μl of 50 mM phosphoric acid. 90 μl of the mixture were transferred to a pre-wetted 96-well Multiscreen MAPHNOB filtration plate (Millipore) and filtered on a vacuum manifold. The filter plate was washed with 3 successive additions of 200 μl 50 mM phosphoric acid and then with 100 μl methanol. The filtration plate was dried for 10 min at 65° C., scintillant added and phosphorylated peptide quantified in a scintillation counter (Trilux, PerkinElmer)
Protocol for the Akt assay is the same for CDK2 except that, 3 nM Akt1 (Upstate) was used with Histone H1 as substrate with a final ATP concentration of 200 μM. The reaction was incubated at 30° C. for 40 minutes.

The next assay deals with T4, PKA (Homo sapiens, UniProt P17612).
T4 construct: purchased Upstate
The experiment in a line: PKA kinase assay (Kemptide substrate). The conditions noted are these: 100 μM ATP. The method, then:
as §1, with “The” for “Assays for the cyclin dependent kinase activity were carried out by monitoring the phosphorylation of a synthetic peptide, HATTPKKKRK. The”
The PKA assay was incubated at 30° C. for 30 minutes.

Assay [1] deals with CDK-2 enzyme, complexed with cyclin A (Homo sapiens, UniProt P24941). The experiment in a line: CDK2 kinase assay (33P peptide phosphorylation). Conditions: 0.1 mM ATP, cyclin A complex. The method, then: as §1, with “The” for “Assays for the cyclin dependent kinase activity were carried out by monitoring the phosphorylation of a synthetic peptide, HATTPKKKRK. The”

One may read the IC50 as the concentration needed to halve the response being measured. In the case of `Cc1cc2nc(-c3n[nH]c(C)c3C(=O)NC3CCN(C)CC3)[nH]c2cc1C` [Example 29], the IC50 on GST-Chk1 enzyme was 0.016 µM; on PDK1, 0.18 µM; on Akt1 it was > 50 µM; against PKA, 5.98 µM; in assay [1], 8.24 µM.
As to `Cc1[nH]nc(-c2nc3c(F)c(F)ccc3[nH]2)c1C(=O)NC1CCNCC1` [Example 12], the IC50 at GST-Chk1 enzyme was 0.609 µM; at PDK1, 0.485 µM; at Akt1, > 50 µM; at PKA, 20.9 µM; in assay [1], 10.5 µM.
In the same order, the values of `Cc1[nH]nc(-c2nc3ccccc3[nH]2)c1C(=O)NC1CCNCC1` [Example 1, 3-(1H-Benzoimidazol-2-yl)-5-methyl-1H-pyrazole-4-carboxylic Acid piperidin-4-ylamide] are 0.098 µM, 0.108 µM, 17.1 µM, 7.26 µM and 3.3 µM.
The matching figures for `Cc1[nH]nc(-c2nc3cc4ccccc4cc3[nH]2)c1C(=O)NCC1CCCNC1` (stereo not shown) [Example 28]: 0.008 µM, 0.125 µM, > 50 µM, 8.99 µM and 8.5 µM.
The matching figures for `Cc1[nH]nc(-c2nc3ccc(C(=O)NC4CCCC4)cc3[nH]2)c1C(=O)NC1CCNCC1` [Example 7, 2-[5-Methyl-4-(piperidin-4-ylcarbamoyl)-1H-pyrazol-3-yl]-3H-benzimidazole-5-carboxylic Acid Cyclopentylamide]: 0.043 µM, 0.07 µM, 28.6 µM, 12.6 µM and 9.24 µM.
As for `Cc1[nH]nc(-c2nc3cc(C(=O)NC(C)C)ccc3[nH]2)c1C(=O)NC1CCNCC1` [Example 24], the IC50 on GST-Chk1 enzyme turned out to be 0.036 µM; at PDK1, 0.046 µM; on Akt1 it was 34.5 µM; at PKA, 10.7 µM; in assay [1] it was 6.42 µM.
The matching figures for `Cc1[nH]nc(-c2nc3cc4nc[nH]c4cc3[nH]2)c1C(=O)NC1CCNCC1` [Example 11]: 0.088 µM, 0.12 µM, > 50 µM, 7.77 µM and 38.9 µM.
Consider `Cc1[nH]nc(-c2nc3cc(Cl)c(C(C)C)cc3[nH]2)c1C(=O)NC1CN2CCC1CC2` (stereo not shown) [Example 44], for which the IC50 was 0.091 µM on GST-Chk1 enzyme; 0.14 µM on PDK1; > 10 µM at Akt1; 12 µM on PKA; > 50 µM in assay [1].
Take `Cc1[nH]nc(-c2nc3ccc(NC(=O)CC(C)C)cc3[nH]2)c1C(=O)NC1CCN(C)CC1` [Example 33]: the IC50 is 0.003 µM on GST-Chk1 enzyme; 0.095 µM on PDK1; 47.5 µM at Akt1; 13.1 µM at PKA; 21.3 µM in assay [1].
On to `Cc1[nH]nc(-c2nc3ccc(C(C)(C)C)cc3[nH]2)c1C(=O)N[C@@H]1CN2CCC1CC2` [Example 41], for which the IC50 at GST-Chk1 enzyme is 0.025 µM; at PDK1, 0.052 µM; at Akt1, > 10 µM; at PKA, 2.12 µM; in assay [1] it was > 50 µM.
The matching figures for `Cc1[nH]nc(-c2nc3cc4cn[nH]c4cc3[nH]2)c1C(=O)NCC1CCNCC1` [Example 22]: 0.094 µM, 0.11 µM, 36.1 µM, 6.4 µM and 31 µM.
The matching figures for `Cc1[nH]nc(-c2nc3ccccc3[nH]2)c1C(=O)NC1CCN(Cc2ccccc2)CC1` [Example 10]: 0.107 µM, 0.435 µM, > 50 µM, 29.1 µM and 44 µM.
In the same order, the values of `Cc1[nH]nc(-c2nc3ccc(C4CC4)cc3[nH]2)c1C(=O)NC1CCNCC1` [Example 40] are 0.022 µM, 0.02 µM, > 10 µM, 2.86 µM and 23.7 µM.
`Cc1[nH]nc(-c2nc3cc(F)c(NC(=O)C4CC4)cc3[nH]2)c1C(=O)NC1CCN(C)CC1` [Example 34]: the IC50 at GST-Chk1 enzyme was 0.013 µM; at PDK1, 0.216 µM; at Akt1, 44.1 µM; against PKA it was 28.4 µM; in assay [1], 20.6 µM.
On to `Cc1cc2nc(-c3n[nH]c(C)c3C(=O)NC3CCCN(C)C3)[nH]c2cc1C` (stereo not shown) [Example 3, 3-(5,6-Dimethyl-1H benzoimidazole-2-yl)-5-methyl-1H-pyrazole-4-carboxylic Acid (1-methyl-piperidin-3-yl)-amide], for which the IC50 on GST-Chk1 enzyme is 0.077 µM; on PDK1, 0.44 µM; at Akt1, 41.3 µM; against PKA it was 23.4 µM; in assay [1] it was 30.9 µM.
Turning to `Cc1[nH]nc(-c2nc3cc4ccccc4cc3[nH]2)c1C(=O)NCC1CCNC1` (stereo not shown) [Example 27], the IC50 on GST-Chk1 enzyme is 0.004 µM; at PDK1, 0.143 µM; on Akt1, > 50 µM; against PKA, 8.31 µM; in assay [1], 6.24 µM.
Take `Cc1[nH]nc(-c2nc3ccc(C(C)C)cc3[nH]2)c1C(=O)N[C@@H]1CN2CCC1CC2` [Example 43]: the IC50 is 0.026 µM on GST-Chk1 enzyme; 0.022 µM at PDK1; > 10 µM at Akt1; 2.02 µM at PKA; 14.7 µM in assay [1].
